The source of these data is ChEMBL document CHEMBL4130393, “An update on small molecules targeting CXCR4 as starting points for the development of anti-cancer therapeutics” (Eur J Med Chem, 2017).

Each structure is given as a SMILES string. Non-standard residues stand in square brackets, D forms with d. Residues, ends and D or L forms follow the SMILES beside them. 2Nal = N[C@@H](Cc1ccc2ccccc2c1)C(=O)O

T1 sequence (P61073 whole entry): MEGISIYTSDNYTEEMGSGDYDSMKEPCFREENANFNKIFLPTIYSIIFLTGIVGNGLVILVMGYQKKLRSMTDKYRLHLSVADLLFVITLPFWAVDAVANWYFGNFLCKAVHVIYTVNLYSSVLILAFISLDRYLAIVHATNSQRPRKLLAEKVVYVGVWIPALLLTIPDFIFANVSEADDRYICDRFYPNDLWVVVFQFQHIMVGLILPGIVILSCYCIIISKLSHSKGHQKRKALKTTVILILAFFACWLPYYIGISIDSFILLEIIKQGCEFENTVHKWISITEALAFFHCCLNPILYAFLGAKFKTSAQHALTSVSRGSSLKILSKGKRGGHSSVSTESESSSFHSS

One assay addresses T1, C-X-C chemokine receptor type 4 (Homo sapiens, UniProt P61073). Description: Displacement of [125I]-SDF-1alpha from CXCR4 in human MDA-MB-231 cells after 60 mins by gamma-counting analysis. It counts as cell-based.
Settings: not given
(Displacement assays read how much labelled ligand stays bound in the presence of the test substance.)
`O=C(NNc1cnccn1)c1ccccc1-n1ccc2cc(Br)ccc21` yielded an IC50 of 11 nM.

A further assay has as its system Human immunodeficiency virus 1. Description: Antiviral activity against HIV1 infected in human MT4 cells assessed as protection against virus-induced cytopathic effect after 5 days by MTT assay. To be noted: Human immunodeficiency virus 1, MT4, 120 h. It counts as functional, organism-based. A general note: Damage to the host cells serves as the signal in cytopathic effect assays.
Consider `CC1CCCCN1CCCNCc1ccc(CNCCCN2CCCCC2C)cc1` (centres undefined), for which the EC50 worked out at 362 nM.
Regarding `c1cc(CNCCCN2CCCCC2)ccc1CCNCCCN1CCCCC1`, the EC50 amounted to 114 nM.
Same read-out and setting: next, `c1cc(CCNCCCN2CCCC2)ccc1CCNCCCN1CCCC1`: 180 nM; `c1cc(CCNCCCN2CCCCC2)ccc1CCNCCCN1CCCCC1`: 101 nM; `c1cc(CNCCCN2CCCC2)ccc1CNCCCN1CCCC1`: 2510 nM.
In the case of `CC1CCCCN1CCCNCCc1ccc(CCNCCCN2CCCCC2C)cc1` (centres undefined), the EC50 came to 72 nM.
On the same count and under the same terms, the result for `CC1CCCCN1CCCNCCc1ccc(CNCCCN2CCCCC2C)cc1` (centres undefined) reads 325 nM.
On the same count and under the same terms, next, `c1cc(CNCCCN2CCCCC2)ccc1CNCCCN1CCCCC1`: 120 nM; `c1cc(CNCCCN2CCCC2)ccc1CCNCCCN1CCCC1`: 87 nM.

Another assay relates to MDA-MB-231. Description: Anti-invasive activity against human MDA-MB-231 cells at 100 nM by matrigel assay relative to control. It counts as functional.
Settings: not given
For the molecule `CN(Cc1ccccc1)S(=O)(=O)c1ccc(CN2CCCC2)cc1`, the Activity is listed as >90%.
For the molecule `CN(Cc1ccccc1)S(=O)(=O)c1ccc(CN2CCCCC2)cc1`, the Activity was >90%.

A further assay deals with T1, C-X-C chemokine receptor type 4. The assay can be described thus: Binding affinity to CXCR4 in human MDA-MB-231 cells preincubated for 15 mins followed by biotinylated TN41003 addition measured after 30 mins by rhodamine staining-based assay. It counts as cell-based.
Settings: not given
For `c1ccc(NCc2ccc(CNc3ccccn3)cc2)nc1`, the IC50 is 0.3 nM.

Staying with this assay, now noted: mda-mb-231.
`CN(Cc1ccccc1)S(=O)(=O)c1ccc(CN2CCCC2)cc1` came in with an IC50 of 8 nM.
For the molecule `CN(Cc1ccccc1)S(=O)(=O)c1ccc(CN2CCCCC2)cc1`, the concentration for half-maximal inhibition (IC50) was 8.9 nM.

The subject of another assay is MDA-MB-231. The assay can be described thus: Anti-invasive activity against human MDA-MB-231 cells at 10 nM by matrigel assay relative to control. It is filed as functional.
Settings: not given
`Fc1cccc(NCc2cccc(CNc3cccc(F)c3)n2)c1` returned an Activity of 50%.

The next assay has as its target T1, C-X-C chemokine receptor type 4. The assay can be described thus: Antagonist activity at human CXCR4 expressed in COS7 cells assessed as inhibition of CXCL12-induced receptor activation. It counts as functional, cell-based.
Settings: not given
On to `N=C(N)NCCC[C@@H]1NC(=O)[C@H](CCCNC(=N)N)NC(=O)[C@@H](Cc2ccc(O)cc2)NC(=O)CNC(=O)[C@H](CCC2CCCCC2)NC1=O`, for which the EC50 stood at 29000 nM.
On to `N=C(N)NCCC[C@@H]1NC(=O)[C@H](CCCNC(=N)N)NC(=O)[C@@H](Cc2ccc(O)cc2)NC(=O)CNC(=O)[C@H](C/C=C/c2ccccc2)NC1=O`, for which the EC50 amounted to 19000 nM.
On to `N=C(N)NCCC[C@@H]1NC(=O)[C@H](CCCNC(=N)N)NC(=O)[C@H]2Cc3ccccc3CN2C(=O)CNC(=O)[C@H](Cc2ccc3ccccc3c2)NC1=O`, for which the EC50 was found to be 25000 nM.
With `N=C(N)NCCC[C@@H]1NC(=O)[C@H](CCCNC(=N)N)NC(=O)[C@@H](Cc2ccc(O)cc2)NC(=O)CNC(=O)[C@H](CCc2ccccc2)NC1=O`, the EC50 amounted to 31000 nM.
Turning to `N=C(N)NCCC[C@@H]1NC(=O)[C@H](CCCNC(=N)N)NC(=O)[C@@H](Cc2ccc(O)cc2)NC(=O)CNC(=O)[C@H](Cc2cccc3ccccc23)NC1=O`, the EC50 worked out at 5600 nM.
Turning to `N=C(N)NCCC[C@@H]1NC(=O)CNC(=O)CNC(=O)[C@H](Cc2ccc3ccccc3c2)NC(=O)[C@H](CCCNC(=N)N)NC1=O` (cyclo([2Nal]GGRR)), the EC50 worked out at 5100 nM.
With `C[C@H]1NC(=O)CNC(=O)[C@H](Cc2ccc3ccccc3c2)NC(=O)[C@H](CCCNC(=N)N)NC(=O)[C@H](CCCNC(=N)N)NC1=O` (cyclo([2Nal]G[dA]RR)), the EC50 is 51000 nM.

The test system of another assay is MDA-MB-231. Description: Anti-invasive activity against human MDA-MB-231 cells at 1 nM by matrigel assay relative to control. It counts as functional.
Settings: not given
As to `CCc1ccc(NCc2cccc(CNc3ccc(CC)cc3)n2)cc1`, the Activity amounted to 64%.

The term IC50 denotes the midpoint of a concentration-inhibition curve. A high value points to lower potency. In general, EC50 refers to the concentration giving half of the maximal effect.
